Reference: PubChem BioAssay AID248 (DTP/NCI, 2004)
Several values for one entry are separate records, joined by “and”; a condition that tells them apart may be missing. Equal entries are not always repeated. Toxic doses and inconclusive results are not listed.

Tested on: L1210 leukemia ip in BDF1 mice, survival T/C
Test: NCI In Vivo Anticancer Drug Screen. Data for tumor model L1210 Leukemia (intraperitoneal) in B6D2F1 (BDF1) mice
Conditions: endpoint: mean survival time, higher = longer survival
Outline: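 Value reflects the ratio of survival in compound-treated mice to survival in vehicle-treated controls, with both groups carrying the same transplanted tumor.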

[1] = dose: 100.0 mg/kg/injection, schedule: Q01DX009 (ip), vehicle: Klucel (hydroxypropylcellulose) (HPC)
[2] = dose: 200.0 mg/kg/injection, schedule: Q01DX009 (ip), vehicle: Klucel (hydroxypropylcellulose) (HPC)
[3] = dose: 100.0 mg/kg/injection, schedule: Q01DX009 (ip), vehicle: saline with Tween-80
[4] = dose: 200.0 mg/kg/injection, schedule: Q01DX009 (ip), vehicle: saline with Tween-80
[5] = dose: 100.0 mg/kg/injection, schedule: Q04DX003 (ip), vehicle: Klucel (hydroxypropylcellulose) (HPC)
[6] = dose: 200.0 mg/kg/injection, schedule: Q04DX003 (ip), vehicle: Klucel (hydroxypropylcellulose) (HPC)
[7] = dose: 400.0 mg/kg/injection, schedule: Q04DX003 (ip), vehicle: Klucel (hydroxypropylcellulose) (HPC)
[8] = dose: 400.0 mg/kg/injection, schedule: Q01DX009 (ip), vehicle: Klucel (hydroxypropylcellulose) (HPC)
[9] = dose: 200.0 mg/kg/injection, schedule: Q01DX001 (ip), vehicle: saline
[10] = dose: 100.0 mg/kg/injection, schedule: Q01DX001 (ip), vehicle: saline
[11] = dose: 400.0 mg/kg/injection, schedule: Q01DX001 (ip), vehicle: saline
[12] = dose: 100.0 mg/kg/injection, schedule: Q04DX003 (ip), vehicle: saline with Tween-80
[13] = dose: 200.0 mg/kg/injection, schedule: Q04DX003 (ip), vehicle: saline with Tween-80
[14] = dose: 400.0 mg/kg/injection, schedule: Q04DX003 (ip), vehicle: saline with Tween-80
[15] = dose: 25.0 mg/kg/injection, schedule: Q01DX009 (ip), vehicle: Klucel (hydroxypropylcellulose) (HPC)

SMILES: CC(C)(C)C1CCC(=O)C(Cl)C1 (centres undefined)
- T/C [1]: 94 % of control
- T/C (dose: 100.0 mg/kg/injection, schedule: Q04DX003 (ip), vehicle: alcohol): 94 % of control
- T/C [2]: 95 % of control
- T/C (dose: 200.0 mg/kg/injection, schedule: Q04DX003 (ip), vehicle: alcohol): 92 % of control
- T/C (dose: 400.0 mg/kg/injection, schedule: Q04DX003 (ip), vehicle: alcohol): 87 % of control

SMILES: CCCCCCCc1c(C)[nH]c2ccccc2c1=O
- T/C [1]: 86 % of control
- T/C (dose: 100.0 mg/kg/injection, schedule: Q04DX003 (ip), vehicle: other): 98 % of control
- T/C (dose: 200.0 mg/kg/injection, schedule: Q04DX003 (ip), vehicle: other): 94 % of control
- T/C (dose: 400.0 mg/kg/injection, schedule: Q04DX003 (ip), vehicle: other): 91 % of control

SMILES: O=C(N/N=C\c1ccc([N+](=O)[O-])cc1)c1ccccc1
- T/C [3]: 97 % of control
- T/C [4]: 94 % of control
- T/C (dose: 400.0 mg/kg/injection, schedule: Q01DX009 (ip), vehicle: saline with Tween-80): 93 % of control

SMILES: O=C(CC(=O)c1cccc([N+](=O)[O-])c1)Nc1ccccc1Br
- T/C [5]: 94 % of control
- T/C [6]: 91 % of control
- T/C [7]: 94 % of control

SMILES: CCOC(=O)C(C)(C)CCl
- T/C [1]: 100 % of control
- T/C [2]: 94 % of control
- T/C [8]: 103 % of control

SMILES: CC(/C=N/NC1=NCCN1)=N/NC1=NCCN1
- T/C (dose: 15.7 mg/kg/injection, schedule: Q01DX Z (ip), vehicle: carboxymethylcellulose (CMC)): 104 % of control
- T/C (dose: 31.5 mg/kg/injection, schedule: Q01DX Z (ip), vehicle: carboxymethylcellulose (CMC)): 101 % of control
- T/C (dose: 63.0 mg/kg/injection, schedule: Q01DX Z (ip), vehicle: carboxymethylcellulose (CMC)): 102 % of control
- T/C (dose: 126.0 mg/kg/injection, schedule: Q01DX Z (ip), vehicle: carboxymethylcellulose (CMC)): 103 % of control
- T/C (dose: 127.0 mg/kg/injection, schedule: Q01DX Z (ip), vehicle: carboxymethylcellulose (CMC)): 106 % of control

SMILES: N#CC(N)c1ccccc1 (centres undefined)
- T/C (dose: 75.0 mg/kg/injection, schedule: Q01DX001 (ip), vehicle: saline): 103 % of control

SMILES: Cc1cc(C)c(S(=O)(=O)Nc2cc([N+](=O)[O-])ccc2C)c(C)c1
- T/C [1]: 97 % of control
- T/C [2]: 92 % of control
- T/C [8]: 92 % of control

SMILES: CC1(C)N=C(N)N=C(N)N1c1cccc(CCCCC(=O)CCl)c1
- T/C (dose: 12.5 mg/kg/injection, schedule: Q04DX003 (ip), vehicle: saline): 109 % of control
- T/C (dose: 25.0 mg/kg/injection, schedule: Q04DX003 (ip), vehicle: saline): 102 % of control
- T/C (dose: 50.0 mg/kg/injection, schedule: Q04DX003 (ip), vehicle: saline): 110 % of control

SMILES: O=[N+]([O-])c1ccc(S(=O)(=O)c2ccccc2)c([N+](=O)[O-])c1
- T/C (dose: 6.0 mg/kg/injection, schedule: Q01DX001 (ip), vehicle: saline): 93 % of control
- T/C (dose: 12.0 mg/kg/injection, schedule: Q01DX001 (ip), vehicle: saline): 100 % of control
- T/C (dose: 25.0 mg/kg/injection, schedule: Q01DX001 (ip), vehicle: saline): 91 % of control
- T/C (dose: 50.0 mg/kg/injection, schedule: Q01DX001 (ip), vehicle: saline): 100 % of control and 105 % of control
- T/C [9]: 95 % of control

SMILES: O=C(CN1C(=O)CCC1=O)Oc1ccc([N+](=O)[O-])cc1
- T/C [10]: 91 % of control
- T/C [9]: 98 % of control
- T/C [11]: 102 % of control

SMILES: O=Cc1csc2ncccc12
- T/C [12]: 103 % of control
- T/C [13]: 100 % of control
- T/C [14]: 105 % of control

SMILES: O=Cc1cc(O)ccc1[N+](=O)[O-]
- T/C [3]: 98 % of control
- T/C [12]: 103 % of control
- T/C [4]: 88 % of control
- T/C [13]: 104 % of control
- T/C [14]: 109 % of control

SMILES: Cc1cccc(C)c1OC(=O)NCCCCCCNC(=O)Oc1c(C)cccc1C
- T/C [1]: 102 % of control
- T/C [2]: 92 % of control
- T/C [8]: 92 % of control

SMILES: CCOC1c2cc(OC)ccc2C(=O)CCN1S(=O)(=O)c1ccc(C)cc1 (centres undefined)
- T/C [5]: 92 % of control
- T/C [6]: 91 % of control
- T/C [7]: 96 % of control

SMILES: NC1=CC(=O)c2ccccc2C1=O
- T/C (dose: 15.6 mg/kg/injection, schedule: Q01DX Z (ip), vehicle: other): 112 % of control
- T/C (dose: 62.5 mg/kg/injection, schedule: Q01DX Z (ip), vehicle: other): 106 % of control
- T/C [12]: 103 % of control
- T/C [13]: 98 % of control

SMILES: C1CSCCS1
- T/C [1]: 101 % of control
- T/C [2]: 117 % of control
- T/C [8]: 100 % of control

SMILES: O=C(O)CN1C(=O)C2C3CCC(C3)C2C1=O (centres undefined)
- T/C [12]: 97 % of control
- T/C [13]: 97 % of control
- T/C [14]: 94 % of control

SMILES: O=C1NC(c2ccccc2)(c2ccccc2)C(O)N1CCO (centres undefined)
- T/C [12]: 101 % of control
- T/C [13]: 101 % of control
- T/C [14]: 98 % of control

SMILES: S=c1nc[nH]c2c1ncn2CN1CCOCC1
- T/C (dose: 30.0 mg/kg/injection, schedule: Q01DX015 (ip), vehicle: saline): 119 % of control
- T/C (dose: 42.0 mg/kg/injection, schedule: Q01DX009 (ip), vehicle: carboxymethylcellulose (CMC)): 118 % of control
- T/C (dose: 80.0 mg/kg/injection, schedule: Q01DX015 (ip), vehicle: saline): 153 % of control
- T/C (dose: 100.0 mg/kg/injection, schedule: Q01DX001 (ip), vehicle: carboxymethylcellulose (CMC)): 112 % of control
- T/C [10]: 110 % of control
- T/C (dose: 120.0 mg/kg/injection, schedule: Q01DX009 (ip), vehicle: carboxymethylcellulose (CMC)): 168 % of control
- T/C (dose: 135.0 mg/kg/injection, schedule: Q01DX015 (ip), vehicle: saline): 152 % of control
- T/C (dose: 177.0 mg/kg/injection, schedule: Q01DX001 (ip), vehicle: saline): 152 % of control
- T/C [9]: 122 % of control
- T/C (dose: 200.0 mg/kg/injection, schedule: Q01DX009 (ip), vehicle: carboxymethylcellulose (CMC)): 91 % of control
- T/C (dose: 266.0 mg/kg/injection, schedule: Q01DX001 (ip), vehicle: saline): 163 % of control
- T/C (dose: 400.0 mg/kg/injection, schedule: Q01DX001 (ip), vehicle: carboxymethylcellulose (CMC)): 164 % of control and 166 % of control
- T/C [11]: 152 % of control
- T/C (dose: 600.0 mg/kg/injection, schedule: Q01DX001 (ip), vehicle: saline): 152 % of control

SMILES: O=C1OCC(O)(c2ccccc2)C1c1ccccc1 (centres undefined)
- T/C (dose: 55.0 mg/kg/injection, schedule: Q01DX Z (ip), vehicle: methylcellulose (MC)): 98 % of control
- T/C (dose: 83.0 mg/kg/injection, schedule: Q01DX Z (ip), vehicle: methylcellulose (MC)): 118 % of control
- T/C (dose: 125.0 mg/kg/injection, schedule: Q01DX Z (ip), vehicle: methylcellulose (MC)): 104 % of control

SMILES: N#CCN1C(=O)c2ccccc2S1(=O)=O
- T/C (dose: 222.0 mg/kg/injection, schedule: Q01DX Z (ip), vehicle: methylcellulose (MC)): 110 % of control
- T/C (dose: 333.0 mg/kg/injection, schedule: Q01DX Z (ip), vehicle: methylcellulose (MC)): 113 % of control
- T/C (dose: 500.0 mg/kg/injection, schedule: Q01DX Z (ip), vehicle: methylcellulose (MC)): 102 % of control

SMILES: CCCCN(C)N=Nc1ccc(CCCC(=O)OCC)cc1
- T/C (dose: 12.5 mg/kg/injection, schedule: Q01DX009 (ip), vehicle: Klucel (hydroxypropylcellulose) (HPC)): 108 % of control
- T/C (dose: 20.0 mg/kg/injection, schedule: Q01DX009 (ip), vehicle: saline): 107 % of control
- T/C [15]: 106 % of control
- T/C (dose: 35.0 mg/kg/injection, schedule: Q01DX009 (ip), vehicle: saline): 121 % of control
- T/C (dose: 50.0 mg/kg/injection, schedule: Q01DX009 (ip), vehicle: Klucel (hydroxypropylcellulose) (HPC)): 110 % of control
- T/C (dose: 50.0 mg/kg/injection, schedule: Q01DX009 (ip), vehicle: saline): 195 % of control
- T/C (dose: 55.0 mg/kg/injection, schedule: Q01DX009 (ip), vehicle: saline): 101 % of control and 109 % of control
- T/C (dose: 84.0 mg/kg/injection, schedule: Q01DX009 (ip), vehicle: saline): 107 % of control and 115 % of control
- T/C [1]: 123 % of control
- T/C (dose: 100.0 mg/kg/injection, schedule: Q01DX009 (ip), vehicle: saline): 101 % of control
- T/C (dose: 100.0 mg/kg/injection, schedule: Q04DX003 (ip), vehicle: saline): 119 % of control
- T/C (dose: 125.0 mg/kg/injection, schedule: Q01DX009 (ip), vehicle: saline): 114 % of control and 119 % of control

SMILES: c1ccc2c(c1)CCc1ccccc1CN(CCN1CCCC1)C2
- T/C [15]: 96 % of control
- T/C [1]: 99 % of control
